Measured values published in the NIST ThermoML archive (doi:10.1016/j.jct.2007.05.004).
Numbers after ± are expanded uncertainties.

Test: xn = mol fraction of the nth substance listed
Details: 101 kPa, Liquid

CCO [ethanol] + COC(C)=O
x1 = 1
Details | mass density [kg/m3] | viscosity [mPa·s]
293.15 K | 789.75 ± 0.46 | 1.187 ± 0.015
298.15 K | 785.46 ± 0.47 | 1.082 ± 0.014
303.15 K | 781.15 ± 0.47 | 0.987 ± 0.013

O [water] + CCO
x1 = 1
Details | viscosity [mPa·s]
293.15 K | 1.002 ± 0.013
298.15 K | 0.89 ± 0.012
303.15 K | 0.797 ± 0.011

CCOC(C)=O [ethyl acetate] + CCO
Details | mass density, 293.15 K [kg/m3] | mass density, 298.15 K [kg/m3] | mass density, 303.15 K [kg/m3] | viscosity, 293.15 K [mPa·s] | viscosity, 298.15 K [mPa·s] | viscosity, 303.15 K [mPa·s]
x2 = 0 | 900.52 ± 0.29 | 894.43 ± 0.3 | 888.3 ± 0.31 | 0.452 ± 0.007 | 0.426 ± 0.006 | 0.403 ± 0.006
x2 = 0.0491 | 896.91 ± 0.3 | 890.86 ± 0.31 | 884.76 ± 0.32 | 0.45 ± 0.007 | 0.425 ± 0.006 | 0.402 ± 0.006
x2 = 0.099 | 893.14 ± 0.3 | 887.11 ± 0.31 | 881.03 ± 0.32 | 0.452 ± 0.007 | 0.429 ± 0.006 | 0.406 ± 0.006
x2 = 0.1958 | 885.48 ± 0.31 | 879.55 ± 0.32 | 873.57 ± 0.33 | 0.463 ± 0.007 | 0.435 ± 0.006 | 0.412 ± 0.006
x2 = 0.2961 | 877.07 ± 0.33 | 871.22 ± 0.34 | 865.34 ± 0.35 | 0.476 ± 0.007 | 0.448 ± 0.007 | 0.426 ± 0.006
x2 = 0.3947 | 868.09 ± 0.34 | 862.38 ± 0.35 | 856.63 ± 0.36 | 0.497 ± 0.007 | 0.467 ± 0.007 | 0.439 ± 0.006
x2 = 0.4948 | 858.16 ± 0.36 | 852.62 ± 0.37 | 847.03 ± 0.38 | 0.542 ± 0.02 | 0.502 ± 0.007 | 0.467 ± 0.007
x2 = 0.5995 | 846.81 ± 0.37 | 841.47 ± 0.38 | 836.07 ± 0.39 | 0.581 ± 0.008 | 0.543 ± 0.008 | 0.508 ± 0.007
x2 = 0.7004 | 834.71 ± 0.39 | 829.57 ± 0.4 | 824.39 ± 0.41 | 0.66 ± 0.009 | 0.614 ± 0.008 | 0.575 ± 0.008
x2 = 0.8004 | 821.45 ± 0.41 | 816.55 ± 0.42 | 811.61 ± 0.43 | 0.758 ± 0.01 | 0.701 ± 0.009 | 0.65 ± 0.009
x2 = 0.9003 | 806.45 ± 0.43 | 801.82 ± 0.44 | 797.15 ± 0.45 | 0.919 ± 0.012 | 0.843 ± 0.011 | 0.777 ± 0.01
x2 = 0.9505 | 798.36 ± 0.45 | 793.91 ± 0.45 | 789.42 ± 0.46 | 1.048 ± 0.013 | 0.958 ± 0.012 | 0.869 ± 0.011

CCO [ethanol] + CCOC(C)=O
x1 = 1
Details | mass density [kg/m3] | viscosity [mPa·s]
293.15 K | 789.75 ± 0.46 | 1.187 ± 0.015
298.15 K | 785.46 ± 0.47 | 1.082 ± 0.014
303.15 K | 781.15 ± 0.47 | 0.987 ± 0.013
